In US4582821A, “Inhibition of cyclic nucleotide independent protein kinases” (E. I. Du Pont de Nemours and Company, priority 1983, dated 1986):

How the values were obtained:
[1] = test system: EGF-mediated tyrosine phosphorylation in Triton extracts of A-431 cell membranes; assay: Phosphoamino acid analysis of labeled Triton extracts of A-431 cell membranes; assay type: biochemical, human; conditions: for Total Phosphoprotein / P-serine radioactivity / P-threonine radioactivity / P-tyrosine radioactivity: 349 nmoles/mg protein; for Total Phosphoprotein: 1/7 aliquot
Procedure: Triton extracts of A-431 cell membranes, prepared substantially as described previously, containing 37.5 μg protein, were labeled with [γ-^32 P] ATP (5 μM, 5 μCi) for 3 minutes at 0° in the presence and absence of Boc-LeuCH2 Br (349 nmoles/mg protein). Protein samples were hydrolyzed and phosphoamino acids were separated by the following procedure.
After labeling, membrane proteins were treated with 10% trichloroacetic acid (TCA) containing 10 mM sodium pyrophosphate and 100 μg BSA. After incubation for one hour at 0°, the foregoing mixture was centrifuged at 3,000 rpm and the resulting pellet washed 3 times with 10% TCA/10 mM sodium pyrophosphate. After recentrifugation, the final pellet was washed with ethanol, dried under vacuum, and dissolved in 70 μL of 0.1N NaOH prior to transfer to glass test tubes containing 0.5 mL 6N hydrochloric acid. The tubes were sealed under vacuum and samples were hydrolyzed at 100° for one hour. The resulting hydrolysates were lyophilized, resuspended in 30 μL water and electrophoresed on Whatman 3MM paper for 3 hours at 3,000 V, at pH 3.5 in 5% acetic acid/0.5% pyridine. Phosphotyrosine, phosphoserine, and phosphothreonine (10 μg of each) were employed as markers. Following electrophoresis, spots corresponding to the foregoing phosphoamino acids were located by ninhydrin treatment, excised, and bleached with 6% hydrogen peroxide. Radioactivity of the spots was determined by scintillation counting and expressed as cpm. Total phosphoprotein of a 1/7 aliquot of each reaction mixture was determined as previously described.

p130^fps [2] = target: T1, p130^fps (UniProt P00530+P03323); assay: Immune complex phosphorylation by p130fps immunoprecipitates of FSV-transformed cells; assay type: biochemical, Fujinami sarcoma virus (FSV); conditions: for Activity (cpm), FSV: anti-gag immunoprecipitates, no inhibitor 27036; for Activity (cpm), Control: extracts immunoprecipitated with normal serum, no inhibitor 2624
T1 construct: anti-gag serum and Staphylococcus protein A suspension (for FSV-transformed cells); viral gag-derived N-terminal portion (natural gag-fps fusion); expressed in transfected cells; immune complex with anti-gag serum and Staphylococcus protein A
Procedure: In this experiment, Boc-LeuCH2 Br was tested as an inhibitor of pp60^src and p130^fps, the tyrosine-specific protein kinases encoded by the transforming genes of RSV and Fujinami sarcoma virus, respectively.
These viral gene products were partially purified by preparation of immune complexes substantially according to the technique described by Collett et al., Proc. Nat. Acad. Sci. USA 75:2021 (1978). In this procedure, immunoprecipitates are prepared by incubation of extracts of virus-transformed cells with tumor-bearing rabbit serum (TBR) and Staphylococcus protein A suspension (for RSV-transformed cells) or anti-gag serum and Staphylococcus protein A suspension (for FSV-transformed cells).
Assay mixtures contained, in a final volume of 70 μL, 100 μg of immune complex protein, 20 mM Hepes, pH 7.4, and 1 mM MnCl2. Phosphorylation was initiated by addition of 1 μM (4 μCi) [γ-^32 P] ATP. After 10 minutes at about 23°, reactions were terminated by pipetting 20 μL aliquots of assay mixture onto 2×2 cm squares of Whatman 3 MM filter paper, which were immediately suspended in 10% TCA/10 mM sodium pyrophosphate. […] Controls for the immunoprecipitation procedure were prepared by immunoprecipitating transformed cell extracts with normal serum. Values in parentheses represent specific phosphorylation induced by virus-transformed cells.
(§1) In a related experiment, the capacity of Boc-LeuCH2 Br to inhibit phosphorylation of casein by p130^fps was determined. These tests were conducted substantially as described above, except 1 mg/mL casein was added to assay mixtures as a substrate, and reactions were terminated by addition of 2.5 mM unlabeled ATP and immediate cooling to 0°. Phosphorylated casein was separated from immunoprecipitate suspensions by centrifugation at 3,000 xg for 3 minutes. The resulting pellets were resuspended in 70 μL of 10 mM Hepes, pH 7.5, and 20 μL aliquots were pipetted onto filter paper squares as previously described.
This experiment was conducted substantially according to the procedures described in Example 17, above. In Table 5, "FSV" refers to immunoprecipitates of FSV-transformed cell extracts prepared by addition of anti-gag serum; controls were extracts immunoprecipitated with normal serum.

p130^fps [3] = target: T1, p130^fps; assay: Casein phosphorylation by p130fps immunoprecipitates; assay type: biochemical, Fujinami sarcoma virus (FSV); conditions: for Casein Phosphorylation: 1 mg/mL casein
Procedure: as §1, with “described. […]” for “described.”

[4] = test system: lymphoma cell line MOLT-4; assay: Tumor cell line growth inhibition, MOLT-4; assay type: cell-based
Procedure: In this series of experiments, the tumor cell growth inhibitory capacity of various peptide halomethyl ketones was tested against lymphoma cell lines YAC-1 and MOLT-4, and against an erythroleukemia cell line, K-562. The lymphoma cell line YAC-1 is described by Kiessling, et al., Eur. J. Immunol. 5:112 (1975), and MOLT-4 is described by Minowada, et al., J. Natl. Cancer Inst. 49:891 (1972) and Nilsson, et al., Int. J. Cancer 15:321 (1975). The erythroleukemia cell line K-562 is described by Lozzio, et al., Leuk. Res. 3:363 (1979). In these experiments, cells were grown on standard media as 10 mL suspension cultures. Initial cell density was 10^5 cells/mL. At day 0, test compounds were introduced in ethanol; control cultures received an equal volume of ethanol. Cells were counted at the times indicated.

CC(C)CC(NC(=O)OC(C)(C)C)C(=O)CBr (centres unmarked) [Boc-LeuCH2 Br]
Total Phosphoprotein ([1]; EGF absent, control 3408): 2024 cpm
P-serine radioactivity ([1]; EGF absent, control 328): 300 cpm
P-threonine radioactivity ([1]; EGF absent, control 1100): 1180 cpm
P-tyrosine radioactivity ([1]; EGF absent, control 1152): 488 cpm
Total Phosphoprotein ([1]; EGF present, control 12204): 5332 cpm
P-serine radioactivity ([1]; EGF present, control 494): 262 cpm
P-threonine radioactivity ([1]; EGF present, control 1994): 1270 cpm
P-tyrosine radioactivity ([1]; EGF present, control 18000): 5554 cpm
inhibition of tyrosine phosphorylation (in words) ([1]; both the presence and absence of EGF): pronounced inhibition of tyrosine phosphorylation
% inhibition (p130^fps [2]; 250 nmoles/mg protein): 48%
Activity (cpm), FSV (p130^fps [2]; 250 nmoles/mg protein): 13932 cpm
Activity (cpm), Control (p130^fps [2]; 250 nmoles/mg protein): 2370 cpm
% inhibition (p130^fps [2]; 500 nmoles/mg protein): 69%
Activity (cpm), FSV (p130^fps [2]; 500 nmoles/mg protein): 8344 cpm
Activity (cpm), Control (p130^fps [2]; 500 nmoles/mg protein): 2180 cpm
Immune Complex Phosphorylation, specific phosphorylation (in parentheses) (p130^fps [2]; p130fps + anti-gag serum, 250 nmoles per mg protein, no inhibitor 20104): 6324 cpm
Immune Complex Phosphorylation (p130^fps [2]; p130fps + anti-gag serum, 250 nmoles per mg protein, no inhibitor 29244): 15222 cpm
Immune Complex Phosphorylation (p130^fps [2]; p130fps + control serum, 250 nmoles per mg protein, no inhibitor 9140): 8898 cpm
Immune Complex Phosphorylation (p130^fps [2]; related experiment with 1 mg/mL casein, p130fps + anti-gag serum, no inhibitor 7663): 1656 cpm
Immune Complex Phosphorylation (p130^fps [2]; related experiment with 1 mg/mL casein, p130fps + control serum, no inhibitor 1184): 1286 cpm
Casein Phosphorylation (p130^fps [3]; p130fps + anti-gag serum, no inhibitor 4442): 618 cpm
Casein Phosphorylation (p130^fps [3]; p130fps + control serum, no inhibitor 326): 226 cpm
Percent Inhibition (p130^fps [3]; casein-phosphorylating activity of p130fps, concentration not given): 63%
% Growth Relative to Control Cultures ([4]; 0.4 μg/mL, day 2): 66%
% Growth Relative to Control Cultures ([4]; 0.4 μg/mL, day 3): 84%
% Growth Relative to Control Cultures ([4]; 0.4 μg/mL, day 4): 67%
% Growth Relative to Control Cultures ([4]; 2.0 μg/mL, day 2): 29%
% Growth Relative to Control Cultures ([4]; 2.0 μg/mL, day 3): 31%
% Growth Relative to Control Cultures ([4]; 2.0 μg/mL, day 4): 21%
% Growth Relative to Control Cultures ([4]; 2.0 μg/mL, day 7): 74%
% Growth Relative to Control Cultures ([4]; 10. μg/mL, day 1): 49%
% Growth Relative to Control Cultures ([4]; 10. μg/mL, day 2): 16%
% Growth Relative to Control Cultures ([4]; 10. μg/mL, day 3): 14%
% Growth Relative to Control Cultures ([4]; 10. μg/mL, day 4): 9%
% Growth Relative to Control Cultures ([4]; 10. μg/mL, day 7): 14%
